# Measurements as given in article PMC12163085, “Targeting transcription factors through an IMiD independent zinc finger domain” (EMBO Molecular Medicine, 2025).
# What was measured:
# SNU387 = assay: cells; set-up: species or system SNU398 and SNU387 isogenic lines; CellTiter-Glo luminescence viability dose response in 384-well plates, nonlinear regression; conditions: Homo sapiens, SNU-387; 72 h cell viability; read-out: EC50 / SNU387Lo
# Description: (§1) Empty vector, SALL4A, and SALL4B expressing isogenic cell lines were generated by transducing the SALL4 negative hepatocellular carcinoma SNU-387 cells with empty vector, SALL4A, or SALL4B FUW-Luc-mCh-puro lentiviral constructs. Cells were plated in 50 μl of RPMI culture media in 384-well white flat-bottom plates (Corning) and incubated at 37 °C in a humidified atmosphere of 5% CO2 overnight. Cell numbers per well were 1500 for SNU-398, and 750 for SNU-387 and SNU-387 isogenic lines. After overnight incubation, varying concentrations of compounds 1–80 were added to cells with multichannel electronic pipettes (Rainin). Cells were then incubated for 72 h at 37 °C in a humidified atmosphere of 5% CO2 before 10 μl of CellTiter-Glo reagent was added to the wells with the MultiFlo Microplate Dispenser (BioTek). Cells were incubated at room temperature for a minimum of 10 min, after which luminescence readings were recorded by an Infinite M1000 Microplate Reader (Tecan). Each data point was performed in n = 3 independent cell cultures. IC50 of compounds were determined using nonlinear regression fitting from Prism (GraphPad). Cell-based screening was next employed to evaluate the growth inhibitory activity of the test compounds against SALL4 expressing malignant cells. SNU398, a liver cancer cell line with high endogenous levels of SALL4, and SNU387, a liver cancer cell line with undetectable levels of SALL4, were used for comparison. Cells were incubated with the test compound at 1 μM for 72 h, after which cell viability was assessed. […] Next, we carried out dose escalation studies on all SH compounds to deduce their EC50 values on SNU387 and SNU398. In order to interrogate the effects of compounds targeting SALL4, we created isogenic cells by overexpressing SALL4A (SNU387-TgSALL4A) or SALL4B (SNU387-TgSALL4B) in SNU387 cells (Tan et al, [2019]) (Fig. 2B, and Dataset EV4). The EC50 of SH2, SH6, and SH7 in SALL4 high SNU398 cells were 0.4 μM, 0.5 μM, and 0.3 μM, respectively. In contrast, the EC50 values of the same compounds were more than 10 μM on SALL4 low SNU387 cells.
# SNU398 = assay: cells; set-up: species or system SNU387, SNU398 and SNU387 isogenic lines; CellTiter-Glo luminescence viability dose response in 384-well plates, nonlinear regression; conditions: Homo sapiens, SNU-398; 72 h cell viability; read-out: EC50 / SNU398Hi
# Description: as §1
EC50 (SNU387) [µM],EC50 (SNU398) [µM],SMILES
~30,~3,COc1cc(Nc2ncccc2/C=C/C(=O)Nc2ccccc2N)cc(OC)c1OC [SH1]
> 30,~1.5,COc1cc(Nc2ncccc2/C=C/C(=O)Nc2cc(C)ccc2N)cc(OC)c1OC [SH3]
> 30,~2,COc1cc(Nc2ncccc2/C=C/C(=O)Nc2cc(C)c(C)cc2N)cc(OC)c1OC [SH4]
> 30,~2.5,COc1cc(Nc2ncccc2/C=C/C(=O)Nc2cc(F)ccc2N)cc(OC)c1OC [SH5]
> 30,> 30,COc1cc(Nc2ncccc2/C=C/C(=O)NO)cc(OC)c1OC [SH8]
> 30,~25,COc1ccc(Nc2ncccc2/C=C/C(=O)Nc2ccccc2N)cc1 [SH9]
> 30,~2.5,COc1ccc(Nc2ncccc2/C=C/C(=O)Nc2cc(OC)ccc2N)cc1 [SH10]
~10,~3,COc1ccc(Nc2ncccc2/C=C/C(=O)Nc2cc(C)ccc2N)cc1 [SH11]
> 30,~25,COc1ccc(Nc2ncccc2/C=C/C(=O)Nc2cc(C)c(C)cc2N)cc1 [SH12]
~25,~7,COc1ccc(Nc2ncccc2/C=C/C(=O)Nc2cc(Cl)ccc2N)cc1 [SH14]
> 30,~20,COc1ccc(Nc2ncccc2/C=C/C(=O)Nc2cc(Cl)c(Cl)cc2N)cc1 [SH15]
> 30,> 30,COc1ccc(Nc2ncccc2/C=C/C(=O)NO)cc1 [SH16]
> 30,~30,Nc1ccccc1NC(=O)/C=C/c1cccnc1Nc1ccc(F)cc1 [SH17]
> 30,~2,COc1ccc(N)c(NC(=O)/C=C/c2cccnc2Nc2ccc(F)cc2)c1 [SH18]
> 30,~12,Cc1cc(N)c(NC(=O)/C=C/c2cccnc2Nc2ccc(F)cc2)cc1C [SH20]
> 30,~25,Nc1ccc(F)cc1NC(=O)/C=C/c1cccnc1Nc1ccc(F)cc1 [SH21]
~30,~15,Nc1ccc(Cl)cc1NC(=O)/C=C/c1cccnc1Nc1ccc(F)cc1 [SH22]
~25,~12,Nc1cc(Cl)c(Cl)cc1NC(=O)/C=C/c1cccnc1Nc1ccc(F)cc1 [SH23]
> 30,30,Nc1ccccc1NC(=O)/C=C/c1cccnc1Nc1ccc(C(F)(F)F)cc1 [SH25]
~12,~6,COc1ccc(N)c(NC(=O)/C=C/c2cccnc2Nc2ccc(C(F)(F)F)cc2)c1 [SH26]
> 30,~12,Cc1ccc(N)c(NC(=O)/C=C/c2cccnc2Nc2ccc(C(F)(F)F)cc2)c1 [SH27]
~25,~12,Cc1cc(N)c(NC(=O)/C=C/c2cccnc2Nc2ccc(C(F)(F)F)cc2)cc1C [SH28]
> 30,~12,Nc1ccc(F)cc1NC(=O)/C=C/c1cccnc1Nc1ccc(C(F)(F)F)cc1 [SH29]

EC50 (SNU387) [µM],EC50 (SNU398) [µM],SMILES
~30,~12,Nc1ccc(Cl)cc1NC(=O)/C=C/c1cccnc1Nc1ccc(C(F)(F)F)cc1 [SH30]
~14,~10,Nc1cc(Cl)c(Cl)cc1NC(=O)/C=C/c1cccnc1Nc1ccc(C(F)(F)F)cc1 [SH31]
> 30,~8,O=C(/C=C/c1cccnc1Nc1ccc(C(F)(F)F)cc1)NO [SH32]
> 30,~20,Nc1ccccc1NC(=O)/C=C/c1cccnc1Nc1ccc(Cl)cc1 [SH33]
~5,~3,COc1ccc(N)c(NC(=O)/C=C/c2cccnc2Nc2ccc(Cl)cc2)c1 [SH34]
~20,~9,Cc1ccc(N)c(NC(=O)/C=C/c2cccnc2Nc2ccc(Cl)cc2)c1 [SH35]
> 30,~17,Cc1cc(N)c(NC(=O)/C=C/c2cccnc2Nc2ccc(Cl)cc2)cc1C [SH36]
> 30,~17,Nc1ccc(F)cc1NC(=O)/C=C/c1cccnc1Nc1ccc(Cl)cc1 [SH37]
> 30,~15,Nc1ccc(Cl)cc1NC(=O)/C=C/c1cccnc1Nc1ccc(Cl)cc1 [SH38]
~25,~16,Nc1cc(Cl)c(Cl)cc1NC(=O)/C=C/c1cccnc1Nc1ccc(Cl)cc1 [SH39]
> 30,~15,O=C(/C=C/c1cccnc1Nc1ccc(Cl)cc1)NO [SH40]
> 30,> 30,COc1cc(Nc2ncccc2C(=O)Nc2ccccc2N)cc(OC)c1OC [SH41]
~30,~12,COc1cc(Nc2ncccc2C(=O)Nc2cc(C)ccc2N)cc(OC)c1OC [SH43]
> 30,> 30,COc1cc(Nc2ncccc2C(=O)Nc2cc(C)c(C)cc2N)cc(OC)c1OC [SH44]
> 30,> 30,COc1cc(Nc2ncccc2C(=O)Nc2cc(F)ccc2N)cc(OC)c1OC [SH45]
> 30,> 30,COc1cc(Nc2ncccc2C(=O)Nc2cc(Cl)ccc2N)cc(OC)c1OC [SH46]
> 30,~18,COc1cc(Nc2ncccc2C(=O)Nc2cc(Cl)c(Cl)cc2N)cc(OC)c1OC [SH47]
> 30,> 30,COc1cc(Nc2ncccc2C(=O)NO)cc(OC)c1OC [SH48]
> 30,> 30,COc1ccc(Nc2ncccc2C(=O)Nc2ccccc2N)cc1 [SH49]
> 30,> 30,COc1ccc(Nc2ncccc2C(=O)Nc2cc(OC)ccc2N)cc1 [SH50]
> 30,> 30,COc1ccc(Nc2ncccc2C(=O)Nc2cc(C)ccc2N)cc1 [SH51]
> 30,> 30,COc1ccc(Nc2ncccc2C(=O)Nc2cc(C)c(C)cc2N)cc1 [SH52]
> 30,> 30,COc1ccc(Nc2ncccc2C(=O)Nc2cc(F)ccc2N)cc1 [SH53]

EC50 (SNU387) [µM],EC50 (SNU398) [µM],SMILES
> 30,> 30,COc1ccc(Nc2ncccc2C(=O)Nc2cc(Cl)ccc2N)cc1 [SH54]
> 30,~25,COc1ccc(Nc2ncccc2C(=O)Nc2cc(Cl)c(Cl)cc2N)cc1 [SH55]
> 30,> 30,COc1ccc(Nc2ncccc2C(=O)NO)cc1 [SH56]
> 30,> 30,Nc1ccccc1NC(=O)c1cccnc1Nc1ccc(F)cc1 [SH57]
> 30,> 30,COc1ccc(N)c(NC(=O)c2cccnc2Nc2ccc(F)cc2)c1 [SH58]
> 30,> 30,Cc1ccc(N)c(NC(=O)c2cccnc2Nc2ccc(F)cc2)c1 [SH59]
> 30,> 30,Cc1cc(N)c(NC(=O)c2cccnc2Nc2ccc(F)cc2)cc1C [SH60]
> 30,~25,Nc1ccc(Cl)cc1NC(=O)c1cccnc1Nc1ccc(F)cc1 [SH62]
> 30,~20,Nc1cc(Cl)c(Cl)cc1NC(=O)c1cccnc1Nc1ccc(F)cc1 [SH63]
> 30,> 30,O=C(NO)c1cccnc1Nc1ccc(F)cc1 [SH64]
> 30,~25,Nc1ccccc1NC(=O)c1cccnc1Nc1ccc(C(F)(F)F)cc1 [SH65]
> 30,~25,COc1ccc(N)c(NC(=O)c2cccnc2Nc2ccc(C(F)(F)F)cc2)c1 [SH66]
> 30,> 30,Cc1ccc(N)c(NC(=O)c2cccnc2Nc2ccc(C(F)(F)F)cc2)c1 [SH67]
> 30,> 30,Cc1cc(N)c(NC(=O)c2cccnc2Nc2ccc(C(F)(F)F)cc2)cc1C [SH68]
> 30,~16,Nc1ccc(F)cc1NC(=O)c1cccnc1Nc1ccc(C(F)(F)F)cc1 [SH69]
> 30,~25,Nc1ccc(Cl)cc1NC(=O)c1cccnc1Nc1ccc(C(F)(F)F)cc1 [SH70]
~25,~16,Nc1cc(Cl)c(Cl)cc1NC(=O)c1cccnc1Nc1ccc(C(F)(F)F)cc1 [SH71]
> 30,~25,O=C(NO)c1cccnc1Nc1ccc(C(F)(F)F)cc1 [SH72]
> 30,~30,Nc1ccccc1NC(=O)c1cccnc1Nc1ccc(Cl)cc1 [SH73]
> 30,~20,COc1ccc(N)c(NC(=O)c2cccnc2Nc2ccc(Cl)cc2)c1 [SH74]
> 30,> 30,Cc1ccc(N)c(NC(=O)c2cccnc2Nc2ccc(Cl)cc2)c1 [SH75]
